# From patent US11744802B2, “Therapeutic compositions for treatment of human immunodeficiency virus” (Gilead Sciences, Inc., priority 2015, dated 2023)
# Like-named read-outs stand apart in the source and are kept apart here.
# Key:
# [1] = Relative bioavailability and food-effect crossover study, cohort 1 (bilayer tablet F2 vs F1 co-administered with F3); conditions: for AUC(0-inf): AUCinf; for AUC(0-t): AUClast
# Procedure: Studies were carried out to assess the pharmacokinetic profiles of the formulations F1, F2, and F3 of Examples 1, 2, and 2A. A randomized, open-label, multiple-period, fixed-sequence, crossover study was performed to evaluate the relative bioavailability of bilayer tablet formulation F2 compared with that of single agent tablet formulation F1 co-administered simultaneously with a fixed-dose combination tablet containing emtricitabine and tenofovir alafenamide (tablet formulation F3). The bioavailability was evaluated in healthy subjects.
# The following plasma pharmacokinetic parameters were calculated: Cmax, AUClast, and AUCinf.
# Pharmacokinetics: Plasma concentrations and PK parameters were listed and summarized by analyte and treatment group using descriptive statistics. In addition, a parametric analysis of variance using a mixed-effects model appropriate for a crossover design was fitted to the natural logarithmic transformation of the PK parameters (AUCinf, AUClast, and Cmax).
# [2] = Pharmacokinetic study cohort 2 (bilayer tablet F7 vs F1 + F3; food effect on F7); conditions: for AUCinf, Mean (% CV) / AUClast, Mean (% CV) / Cmax, Mean (% CV): plasma;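 for all read-outs here: plasma PK parameters per analyte summarized descriptively, with GLSM ratios derived from mixed-effects ANOVA on ln-transformed values (treatment as fixed effect, subject as random effect)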
# Procedure: (§1) The pharmacokinetic study of Example 3 was continued with a second treatment group (cohort) to assess the pharmacokinetic profile of formulation F7 of Example 7 compared with that of formulation F2.
# (§2) The following plasma pharmacokinetic parameters were calculated: AUClast, AUCinf, % AUCexp, Cmax, Clast, Tmax, Tlast, CL/F, Vz/F, and t1/2.
# (§3) Pharmacokinetics: Individual subject concentration data and individual subject PK parameters for each analyte (compound of Formula 1, FTC, and TAF) were listed and summarized using descriptive statistics by treatment group (cohort) and treatment. Summary statistics were determined for both individual subject concentration data by time point, cohort, and treatment and individual subject PK parameters by cohort and treatment. Also, the geometric mean, 95% confidence interval (CI), and the mean, and standard deviation (SD) of the natural log-transformed values were presented for individual subject PK parameter data. The sample size for each time point was based on the number of subjects with nonmissing concentration data at that time point. The number of subjects with concentration below the level of quantitation (BLQ) was presented for each time point.
# (§4) Statistical comparisons of the natural log-transformed PK parameters for each analyte and treatment comparison of interest were performed. The statistical modelling was based on the PK Analysis set for the analyte under evaluation. For each analyte, all subjects with available data for the PK parameter under evaluation were included in the modelling. The statistical comparisons using Treatment A as a reference only used data from this cohort, not from the earlier cohort of Example 3 (i.e., Treatment A was not pooled).
# (§5) For each analyte and each PK parameter, a parametric (normal theory) mixed-effects ANOVA model was fitted to the natural log-transformed values of the PK parameter under evaluation. The statistical model included treatment as a fixed effect and subject as a random effect.
# [3] = Physicochemical properties of the active ingredients (pKa, pH-dependent solubility and stability, BCS class); conditions: for pH of maximum solubility: pH-dependent solubility
# [4] = in vivo
# Procedure: as §1, §2, §3, §4, §5
# [5] = Food effect on single dose Compound of Formula I 100 mg single agent tablet (8 subjects); assay type: in vivo, human; conditions: for AUC(0-inf) / AUC(0-t) / Cmax: human, plasma, oral, 100 mg, mean, Compound of Formula I 100 mg single agent tablet, n = 8
# Procedure: In this study, a single dose of the compound of Formula I was administered in two periods with fixed sequence under fasted and fed conditions respectively. A washout of at least five half-lives was required between fasted and fed sequences.
# Subjects continued to fast until 4 hours post dose or until collection of the 4-hour postdose blood sample.
# The 90% CI for the geometric least square mean (GLSM) ratios for fast versus fed was constructed. The statistical comparison of the pharmacokinetic parameters of the compound of Formula 1 following single dose administration of this tablet formulation in fed and fasted states is presented in the table below.
# [6] = F2 (75/200/25 mg) high-fat meal / fasted
# [7] = Test F2 (75/200/25 mg) / Reference F1 + F3, fasted
# [8] = human, in vivo, plasma, mean, F1 Compound of Formula I (75 mg) + F3 F/TAF (200/25 mg) co-administered, fasted, Reference, N = 28, cohort 1
# [9] = human, in vivo, plasma, mean, F2 Compound of Formula I/F/TAF (75/200/25 mg), high-fat meal, Test, N = 28
# [10] = human, in vivo, plasma, mean, bilayer tablet F2 Compound of Formula I/F/TAF (75/200/25 mg), single dose, fasted, N = 28
# [11] = Test F7 (50/200/25 mg) / Reference F1 + F3, fasted
# [12] = F7 (50/200/25 mg), high fat meal, N = 27
# [13] = F7 (50/200/25 mg), moderate fat meal, N = 27
# [14] = Formulation F1 + F3 (75 mg + F/TAF 200/25 mg), fasted, Reference, N = 28, cohort 2
# [15] = human, plasma, oral, mean, F2 Compound of Formula I/F/TAF (75/200/25 mg), high-fat meal, Test, N = 28
# [16] = human, plasma, oral, plasma, mean, F1 Compound of Formula I (75 mg) + F3 F/TAF (200/25 mg) co-administered, fasted, Reference, N = 28, cohort 1
# [17] = 100 mg single dose, high-calorie/high-fat breakfast
compound,measurement,setting,value
CC(C)OC(=O)[C@H](C)N[P@](=O)(CO[C@H](C)Cn1cnc2c(N)ncnc21)Oc1ccccc1 [Tenofovir alafenamide],% GLSM Ratio of AUCinf,[1]; [6],158.20%
same,% GLSM Ratio of AUClast,[1]; [6],156.81%
same,% GLSM Ratio of Cmax,[1]; [6],83.22%
same,% GLSM Ratio of AUCinf,[1]; [7],91.56%
same,% GLSM Ratio of AUClast,[1]; [7],91.62%
same,% GLSM Ratio of Cmax,[1]; [7],95.47%
same,geometric mean ratio of AUCinf (food effect),[1]; bilayer tablet formulation F2,1.58
same,geometric mean ratio of Cmax (food effect),[1]; bilayer tablet formulation F2,0.83
same,exposure following F2 compared with F1 with the F/TAF FDC (F3),[1]; fasted,similar
same,AUC(0-inf),[1]; [8],0.225 µg·h/mL
same,AUC(0-inf),[1]; [9],0.32 µg·h/mL
same,AUC(0-inf),[1]; [10],0.207 µg·h/mL
same,AUC(0-t),[1]; [8],0.224 µg·h/mL
same,AUC(0-t),[1]; [9],0.315 µg·h/mL
same,AUC(0-t),[1]; [10],0.206 µg·h/mL
same,Cmax,[1]; [8],277 ng/mL
same,Cmax,[1]; [9],212 ng/mL
same,Cmax,[1]; [10],253 ng/mL
same,geometric mean ratio of Cmax (food effect),[1]; tablet formulation F1 (codosed with F3),0.85
same,geometric mean ratio of AUCinf (food effect),[1]; tablet formulation F1 codosed with tablet formulation F3,1.75
same,% GLSM Ratio (90% CI) of AUCinf,[2]; F7 high fat meal / fasted,"166.55 (146.54, 189.29) %"
same,% GLSM Ratio (90% CI) of AUClast,[2]; F7 high fat meal / fasted,"162.62 (143.10, 184.80) %"
same,% GLSM Ratio (90% CI) of Cmax,[2]; F7 high fat meal / fasted,"91.71 (73.46, 114.49) %"
same,% GLSM Ratio (90% CI) of AUCinf,[2]; F7 moderate fat meal / fasted,"148.23 (130.42, 168.47) %"
same,% GLSM Ratio (90% CI) of AUClast,[2]; F7 moderate fat meal / fasted,"148.20 (130.41, 168.41) %"
same,% GLSM Ratio (90% CI) of Cmax,[2]; F7 moderate fat meal / fasted,"99.04 (79.33, 123.65) %"
same,% GLSM Ratio (90% CI) of AUCinf,[2]; [11],"85.48 (75.33, 97.00) %"
same,% GLSM Ratio (90% CI) of AUClast,[2]; [11],"85.37 (75.24, 96.85) %"
same,% GLSM Ratio (90% CI) of Cmax,[2]; [11],"84.17 (67.59, 104.81) %"
same,Cmax lower for Formulation F7 than for the coadministered reference tablets,[2]; fasted,approximately 16%
same,exposure of Formulation F7 compared with coadministered reference tablets,[2]; fasted,similar
same,"AUCinf, Mean (% CV)",[2]; [12],318.4 (32.8) hr · ng/mL
same,"AUClast, Mean (% CV)",[2]; [12],310.3 (34.9) hr · ng/mL
same,"Cmax, Mean (% CV)",[2]; [12],236.6 (65.1) ng/mL
same,"AUCinf, Mean (% CV)",[2]; [13],293.1 (40.9) hr · ng/mL
same,"AUClast, Mean (% CV)",[2]; [13],290.6 (41.3) hr · ng/mL
same,"Cmax, Mean (% CV)",[2]; [13],251.1 (66.7) ng/mL
same,"AUCinf, Mean (% CV)",[2]; [14],238.3 (45.0) hr · ng/mL
same,"AUClast, Mean (% CV)",[2]; [14],236.7 (45.3) hr · ng/mL
same,"Cmax, Mean (% CV)",[2]; [14],291.9 (55.4) ng/mL
same,BCS class,[3],BCS Class 3
same,pKa,[3],3.9
same,solubility (BCS classification),[3],high equilibrium solubility
same,permeability (BCS classification),[3]; not told,lower apparent permeability
same,pH of maximum solubility,[3],~3
"Nc1nc(=O)n([C@@H]2CS[C@H](CO)O2)cc1F [Emtricitabine, 4-amino-5-fluoro-1-[(2R,5S)-2-(hydroxymethyl)-1,3-oxathiolan-5-yl]-1,2-dihydropyrimidin-2-one]",geometric mean ratio of AUCinf (food effect),"[1]; human, in vivo",1.00
same,geometric mean ratio of Cmax (food effect),"[1]; human, in vivo",0.83
same,exposure following F2 compared with F1 with the F/TAF FDC (F3),[1]; in vivo,similar
same,exposure of Formulation F7 compared with coadministered reference tablets,[4],similar
same,BCS class,[3],BCS Class 1
same,pKa,[3],2.65
same,solubility (BCS classification),[3],high solubility
"O=C(NCc1c(F)cc(F)cc1F)c1cn2c(c(O)c1=O)C(=O)N1[C@H]3CC[C@H](C3)O[C@@H]1C2 [Compound of Formula I, (2R,5S,13aR)-8-hydroxy-7,9-dioxo-N-(2,4,6-trifluorobenzyl)-2,3,4,5,7,9,13,13a-octahydro-2,5-methanopyrido[1′,2′:4,5]pyrazino[2,1-b][1,3]oxazepine-10-carboxamide]",AUCinf higher after F2 than after F1 with F3,[1]; fasted,27%
same,Cmax higher after F2 than after F1 with F3,[1]; fasted,31%
same,total exposure higher in F2 than in F1 co-dosed with F3,[1]; fasted,approximately 30%
same,AUC(0-inf),[1]; [15],226 µg·h/mL
same,AUC(0-inf),[1]; [16],123 µg·h/mL
same,AUC(0-t),[1]; [15],217 µg·h/mL
same,AUC(0-t),"[1]; human, plasma, oral, mean, bilayer tablet F2 Compound of Formula I/F/TAF (75/200/25 mg), single dose, fasted, N = 28",152 µg·h/mL
same,AUC(0-t),[1]; [16],120 µg·h/mL
same,Cmax,[1]; [16],5590 ng/mL
same,AUCinf,"[1]; plasma, mean, bilayer tablet F2 Compound of Formula I/F/TAF (75/200/25 mg), single dose, fasted, N = 28","156,637.5 h · ng/mL"
same,AUCinf higher with high-fat meal than fasted,[1]; tablet formulation F2,46%
same,Cmax higher with high-fat meal than fasted,[1]; tablet formulation F2,27%
same,changes in clearance and t1/2 following administration with food,[5]; 100 mg single dose,no apparent changes
same,increase of GLSM value of AUCinf with food,[5]; [17],84%
same,increase of GLSM value of Cmax with food,[5]; [17],101%
same,AUC(0-inf),[5]; Fasted,118 µg·h/mL
same,AUC(0-t),[5]; Fasted,116 µg·h/mL
same,Cmax,[5]; Fasted,5880 ng/mL
same,AUC(0-inf),[5]; Fed (high-fat breakfast),214 µg·h/mL
same,AUC(0-t),[5]; Fed (high-fat breakfast),209 µg·h/mL
same,Cmax,[5]; Fed (high-fat breakfast),11300 ng/mL
same,exposure in Formulation F7 compared with Formulation F2,[2]; 50 mg vs 75 mg dose,proportionally lower
same,"AUCinf, Mean (% CV)",[2]; [12],"140,032.4 (21.8) hr · ng/mL"
same,"Cmax, Mean (% CV)",[2]; [12],5936.3 (18.3) ng/mL
same,"AUCinf, Mean (% CV)",[2]; [13],"140,197.7 (23.6) hr · ng/mL"
same,"Cmax, Mean (% CV)",[2]; [13],6279.6 (18.3) ng/mL
same,"AUCinf, Mean (% CV)",[2]; [14],"146,931.6 (31.1) hr · ng/mL"
same,"Cmax, Mean (% CV)",[2]; [14],6791.1 (26.4) ng/mL
same,AUCinf higher with high-fat meal than fasted,[2]; tablet formulation F7,24%
same,AUCinf higher with moderate fat meal than fasted,[2]; tablet formulation F7,24%
same,Cmax higher with high-fat meal than fasted,[2]; tablet formulation F7,13%
same,Cmax higher with moderate fat meal than fasted,[2]; tablet formulation F7,20%
same,BCS class,[3],BCS Class 2
same,pH of maximum chemical stability,[3],4
same,pKa,[3],8.6
same,solubility (BCS classification),[3],low solubility
same,pH of maximum solubility,[3],10.5
